Experiments:
[1] = Oxidation of NADPH under approximate physiologic conditions (HPLC, NADP+ formation); type: biochemical; conditions: substrate NADPH, pH 7.5, Michaelis-Menton fit, triplicate; for Km: read-out: KM (dissociation or Michaelis constant), NADPH oxidation
Description: The following stock solutions were prepared: • Stock NADPH (Sigma N 7505) (prepared fresh daily): 12.2 mg/(10 mL. 833.4 mg/mmol)=1.46 mM • Stock GdTex: 5.76 mg/(10.0 mL water. 1148 mg/mmol)=501.7 μM • Stock 4× Buffer: 200 mM HEPES, pH 7.5; 400 mM NaCl; 0.4 mM EDTA • Stock LuTex: 5.02 mg/(10.0 mL water×1166 mg/mmol)=431 μM These were combined to form the reaction mixtures analyzed by HPLC, for example: • 250 μL 4× Buffer, 250 μL NADPH Stock, 427 μL Water, 72.7 μL GdTex Stock • 250 μL 4× Buffer, 250 μL NADPH Stock, 457.7 μL Water, 42.3 μL LuTex Stock The HPLC Method employed was as follows: 1. HPLC Operating Parameters: • System—HPLC system capable of delivering gradient mobile phase • Detector wavelength—260 nm • Injection Volume—20 μL • Pressure—ca: 2000 psi • Column Temperature—40° C. • Column—Nucleogel DEAE 60-7 125×4 mm 2. Mobile Phase: • Solution A—0.75 M KH2PO4, pH 3.8 • Solution B—0.016 M KH2PO4, pH 3.8
A reaction mixture was prepared containing NADPH, water and sufficient buffer to maintain the solution at pH 7.5. Texaphyrin, 0.1 molar equivalent to the NADPH, was added to this reaction mixture, vortexed briefly, and then the solution placed in the HPLC sampler for immediate injection. Further injections were made at appropriate time points, whereupon the integrated peak areas of both NADPH and NADP^+ were measured and used to calculate the extent of reaction at a given time point.
Provided that the amount of texaphyrin was sufficiently low relative to substrate, the percentage of NADP^+ generated by the reaction plotted against time initially gave a straight line. (For LuTex, it was necessary to drop the catalyst concentration to ca. 0.05 equivalent.) The slope of initial time points (eg., plotting as mM concentration vs time in hours) provided a rate which was used as a point in a saturation (Michaelis-Menton) plot. This process was repeated at various concentrations of NADPH. Data (in triplicate) was fitted to the Michaelis-Menton equation (initial reaction velocity/catalyst concentration)=(kcat×substrate concentration)/(KM+substrate concentration), where substrate is NADPH, catalyst is texaphyrin complex, kcat is the first-order rate constant for the catalyst, and KM is the dissociation (or Michaelis) constant for the catalyst/substrate complex. For GdTex, kcat=0.049±0.003 min^−1 and KM=1.69±0.17 mM. For LuTex, kcat=0.119±0.011 min^−1 and KM=0.56±0.20 mM.
1B. By following the procedure of Example 1A using a single concentration of NADPH and employing 0.1 equivalent of test compound, the results illustrated in FIG. 16 were obtained.

[2] = tested on: MES-SA human uterine cells; test: Proliferation of MES-SA cells with ascorbate and texaphyrin (MTT); type: cell-based; conditions: for cytotoxic effect of texaphyrin with 333 μM ascorbate: texaphyrin 25-100 μM, 5 hours exposure, MTT after 72 hours; for cytotoxic effect of texaphyrin at lower concentrations of ascorbate: ascorbate below 333 μM (111 μM and 62.5 μM for GdTex); for cytotoxic/inhibitory effect of texaphyrin in the absence of ascorbate: no ascorbate, texaphyrin up to 100 μM
Description: The proliferation of MES-SA human uterine cells (Harker, W. G.; MacKintosh, F. R.; Sikic, B. I. Cancer Res. 1983, 43, 4943-4950) grown in RPMI-1640 medium in the presence of ascorbate or complex was used to assess the formation of hydrogen peroxide under cell culture conditions.
5A. Materials and Methods. MES-SA cells were allowed to adhere to (4) 96-well microtiter plates (4000 cells per well) overnight in 160 μL RPMI medium. Stock ascorbate 3.0 mM in medium (80 μL) was serially diluted (1:3) in rows B through F (discarding the final 80 μL). Row G was used for no-ascorbate control. Stock solutions of GdTex (2 mM in 5% mannitol) diluted in medium and 5% mannitol were prepared and added to the plates to give a final volume of 200 μL in all wells. Columns 2 and 3 contained 100 μM GdTex; columns 4 and 5 contained 75 μM GdTex, columns 6 and 7 contained 50 μM GdTex; columns 8 and 9 contained 25 μM GdTex; and columns 10 and 11 contained no GdTex (all concentrations final). Final mannitol concentration was 0.25% in all wells. The plates were incubated at 37 C under a 5% CO2/95% air atmosphere. Complex-containing medium was exchanged for fresh medium after 5 hours, and plates were incubated an additional 72 hours prior to analysis for viability using the tetrazolium dye, MTT (Mosmann, T. J. Immunol. Methods 1983, 65, 55-63). In brief, 20 μL MTT dye (Sigma Chemical, St. Louis, Mo., catalogue no. M 2128, 5 mg/mL solution in phosphate buffered saline) was added to cells in media to give a final volume of 200 μL. The plates were incubated at 37° C. for ca. 2 hours, whereupon the media was removed and isopropyl alcohol (100 μL/well) was added. Plates were vortexed for ca. 3 minutes to dissolve MTT formazan, then read on a microplate reader at 560-650 nm. Plate absorbances were normalized to wells containing neither ascorbate nor GdTex to allow plate to plate comparison. Data for each concentration of GdTex and ascorbate is the average of eight wells.
The proliferation of MES-SA human uterine cells grown in RPMI-1640 medium in the presence of ascorbate and LuTex was used to assess the production of hydrogen peroxide under cell culture conditions following the protocol outlined in the previous example.

Row | Structure (SMILES) | kcat (first-order rate constant for the catalyst), NADPH oxidation [1] [s⁻¹] | Km [1] [µM] | cytotoxic effect of texaphyrin with 333 μM ascorbate [2] | cytotoxic effect of texaphyrin at lower concentrations of ascorbate [2] | cytotoxic/inhibitory effect of texaphyrin in the absence of ascorbate [2]
1 | CC(=O)[O-].CC(=O)[O-].CCc1c(CC)c2cc3nc(cnc4cc(OCCOCCOCCOC)c(OCCOCCOCCOC)cc4ncc4nc(cc1[n-]2)C(CCCO)=C4C)C(C)=C3CCCO.O.[Gd+3] [GdTex, motexafin gadolinium] | 0.000817 ± 5e-05 | 1690 ± 170 | complete cytotoxicity | dose-response was observed | no cytotoxic effect
2 | CC(=O)[O-].CC(=O)[O-].CCc1c(CC)c2cc3nc(cnc4cc(OCCOCCOCCOC)c(OCCOCCOCCOC)cc4ncc4nc(cc1[n-]2)C(CCCO)=C4C)C(C)=C3CCCO.O.[Lu+3] [LuTex, motexafin lutetium] | 0.00198 ± 0.000183 | 560 ± 200 | dose-response was observed | No inhibitory effect | no inhibitory effect

From patent US7579338B2, “Methods and compositions for treating atheroma, tumors and other neoplastic tissues” (Pharmacyclics, Inc., priority 1999, dated 2009)
